Measured values reported in patent publication US9434724B2, “Quinuclidines for modulating alpha 7 activity” (priority 2014, dated 2016).
Read-outs that look alike come from different tables or passages of the source.

Key:
[1] = target: hERG channels (Homo sapiens (Human), UniProt Q12809); assay: hERG inhibition assay (automated patch clamp, CHO cells); assay type: cell-based
Experimental: hERG study was conducted with an automated patch clamp machine, Qpatch-48HT (Sophion Biosciences, Denmark). Cultured CHO cells stably expressing hERG channels (provided by Sophion Biosciences, Denmark) were harvested from culture flasks of 70-90% cell confluence rate and prepared as cell suspension with a cell density of 3-8×10^6 cells/mL in serum-free media (CHO-S-SFM II, cat#12052 Invitrogen; 25 mM HEPES). Cells in such condition were placed into a Qpatch cell stir chamber and used within 4 hours.
For each run, cells were first spun down by the built-in Qpatch centrifuge and re-suspended in an extracellular solution (in mM, 2 CaCl2, 1 MgCl2, 4 KCl, 145 NaCl, 10 Glucose, 10 HEPES, pH 7.4, osmolarity ˜305 mOsm). Qplate-48 that holds one cell in each of its 48 channels for the later voltage-clamped assay were primed with the extracellular solution and intracellular solution (in mM, 5.4 CaCl2, 1.75 MgCl2, 120 KCl, 10 HEPES, 5 EGTA, 4 NaATP, pH 7.25, Osmolarity ˜280-295 mOsm). Cells were dispatched by Qpatch robotic dispensing guns into each Qplate channel and went through the process of giga-ohm sealing and whole cell configuration. Whole-cell recordings were performed in voltage-clamp mode at a holding potential of −80 mV. […]

[2] = target: Human α7 NAChR (Homo sapiens (Human), UniProt P36544); assay: Electrophysiology screen at 1 μM in Xenopus laevis oocytes; assay type: cell-based; conditions: 1 μM test compound; Imax = maximal current produced by 3 mM ACh
Experimental: Human α7 NAChR plasmid was prepared by GeneWiz from accession NM_000746.5. Human α7 NAChR mRNA was prepared by TriLink at a concentration near 1 μg/μL. The human α7 NAChR mRNA was diluted in sterile water to a working concentration near 10 ng/μL.
Oocytes were obtained from Xenopus laevis frogs and treated with collagenase by Ecocyte Bioscience. Oocytes were injected with the working concentration of α7 NAChR mRNA at a volume of 50 nL for a total of approximately 0.5 ng of α7 NAChR mRNA. Oocytes were maintained in Barth's solution at a temperature of 16° C. The Barth's solution was replaced daily.
Two-electrode voltage clamp recordings were made 3-14 days following mRNA injections at a holding voltage of −70 mV. The NAChR recordings were performed in Ca^++-free Ringer solution (115 mM NaCl, 2 mM KCl, 1.8 mM BaCl2, 5 mM HEPES; pH˜7.4) to limit Ca^++-activated chloride currents.
In all oocyte recordings, drug and wash solutions were applied using a custom-designed microcapillary “linear array” which allows rapid application of agonists. Currents were recorded on a PC-based computer (PClamp, Molecular Devices, Sunnyvale, Calif.). Responses were reported as (I/Imax), where I is the amount of current given by a selected concentration of drug and Imax is the amount of maximal current produced by a 3 mM solution of ACh.
Stocks of test compounds were prepared in DMSO. Test solutions in Ringer were prepared immediately before application of test compound (final DMSO concentration of 0.1%). The final concentration of test compound in the test solution was 1 μM. The test solution was perfused onto the oocyte until a peak current was recorded. There was approximately two minutes of wash time with only the Ringer solution between each application of agonist. Measurement of the test solution was repeated between 2 and 6 times with a two minute wash time between each application of test solution. An average of the currents for each test compound was used to define the response for the test compound.

[3] = target: T1, rat brain nicotinic receptor (α7 NAChR) (Rattus norvegicus (Rat), UniProt Q05941); assay type: binding
[4] = target: CYP3A4 (Homo sapiens (Human), UniProt P08684); conditions: microsomes, 5 min
[5] = target: CYP2C19 (Homo sapiens (Human), UniProt P33261); assay: Cytochrome P450 inhibition in human liver microsomes, CYP2C19; conditions: read-out: 2C19 IC50, Protocol 1
[6] = target: CYP1A2 (Homo sapiens (Human), UniProt P05177); assay: Cytochrome P450 inhibition in human liver microsomes, CYP1A2; conditions: read-out: 1A2 IC50, Protocol 1
[7] = target: CYP2C9 (Homo sapiens (Human), UniProt P11712); assay: Cytochrome P450 inhibition in human liver microsomes, CYP2C9; conditions: read-out: 2C9 IC50, Protocol 1
[8] = Caco-2 permeability assay; assay type: in vitro ADME; conditions: human
Experimental: Caco-2 cells were obtained from American Tissue Culture Collection (Rockville, Md.). The cells were maintained in Modified Eagle's medium (MEM), containing 10% heat-inactivated fetal bovine serum (FCS) and 1% non-essential amino acids, in CO2 at 37° C. Cells were seeded on polycarbonate filter inserts (Millipore, CAT#PSHT 010 R5).
The cells were cultivated for 21-28 days prior to the transport experiments. The transepithelial electric resistance (TEER) and Lucifer Yellow permeability were checked routinely before and after the assay. Compounds were dissolved at 10 mM in 100% dimethyl sulfoxide (DMSO) and diluted for studies in Hank's Balanced Salt Solution (HBSS, Invitrogen, Cat#14025-092) with 25 mM HEPES, pH 7.4. Compounds were tested at 10 μM, and in both the apical-to-basolateral (A-B) and basolateral-to-apical (B-A) directions, at 37° C. for 90 min. At the end of incubation, donor samples were diluted 10-fold by assay buffer, then 60 μL of receiver and diluted-donor samples were mixed with 60 μL of acetonitrile, and analyzed by LC-MS/MS. The concentrations of the compounds were quantified by standard curve.

[9] = target: T1, rat brain nicotinic receptor (α7 NAChR); assay type: binding; conditions: Protocol No. 2; [3H] α-Bungarotoxin 0.4 nM, rat brain P2 membrane

T1 sequence (Q05941 23-502 limits assumed): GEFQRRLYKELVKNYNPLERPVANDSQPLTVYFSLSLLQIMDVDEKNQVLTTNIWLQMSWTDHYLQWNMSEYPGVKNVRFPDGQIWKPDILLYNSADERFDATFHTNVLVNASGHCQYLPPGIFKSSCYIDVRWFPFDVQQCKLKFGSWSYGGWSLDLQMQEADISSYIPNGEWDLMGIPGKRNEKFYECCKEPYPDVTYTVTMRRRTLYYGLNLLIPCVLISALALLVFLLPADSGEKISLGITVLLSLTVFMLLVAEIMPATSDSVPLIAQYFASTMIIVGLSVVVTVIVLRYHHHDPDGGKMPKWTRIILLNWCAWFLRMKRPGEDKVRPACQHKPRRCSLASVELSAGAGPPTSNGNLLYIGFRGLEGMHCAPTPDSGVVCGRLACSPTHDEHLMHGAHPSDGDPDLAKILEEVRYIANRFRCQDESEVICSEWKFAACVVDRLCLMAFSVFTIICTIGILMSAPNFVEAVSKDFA
Chain of hERG channels (Q12809 whole entry): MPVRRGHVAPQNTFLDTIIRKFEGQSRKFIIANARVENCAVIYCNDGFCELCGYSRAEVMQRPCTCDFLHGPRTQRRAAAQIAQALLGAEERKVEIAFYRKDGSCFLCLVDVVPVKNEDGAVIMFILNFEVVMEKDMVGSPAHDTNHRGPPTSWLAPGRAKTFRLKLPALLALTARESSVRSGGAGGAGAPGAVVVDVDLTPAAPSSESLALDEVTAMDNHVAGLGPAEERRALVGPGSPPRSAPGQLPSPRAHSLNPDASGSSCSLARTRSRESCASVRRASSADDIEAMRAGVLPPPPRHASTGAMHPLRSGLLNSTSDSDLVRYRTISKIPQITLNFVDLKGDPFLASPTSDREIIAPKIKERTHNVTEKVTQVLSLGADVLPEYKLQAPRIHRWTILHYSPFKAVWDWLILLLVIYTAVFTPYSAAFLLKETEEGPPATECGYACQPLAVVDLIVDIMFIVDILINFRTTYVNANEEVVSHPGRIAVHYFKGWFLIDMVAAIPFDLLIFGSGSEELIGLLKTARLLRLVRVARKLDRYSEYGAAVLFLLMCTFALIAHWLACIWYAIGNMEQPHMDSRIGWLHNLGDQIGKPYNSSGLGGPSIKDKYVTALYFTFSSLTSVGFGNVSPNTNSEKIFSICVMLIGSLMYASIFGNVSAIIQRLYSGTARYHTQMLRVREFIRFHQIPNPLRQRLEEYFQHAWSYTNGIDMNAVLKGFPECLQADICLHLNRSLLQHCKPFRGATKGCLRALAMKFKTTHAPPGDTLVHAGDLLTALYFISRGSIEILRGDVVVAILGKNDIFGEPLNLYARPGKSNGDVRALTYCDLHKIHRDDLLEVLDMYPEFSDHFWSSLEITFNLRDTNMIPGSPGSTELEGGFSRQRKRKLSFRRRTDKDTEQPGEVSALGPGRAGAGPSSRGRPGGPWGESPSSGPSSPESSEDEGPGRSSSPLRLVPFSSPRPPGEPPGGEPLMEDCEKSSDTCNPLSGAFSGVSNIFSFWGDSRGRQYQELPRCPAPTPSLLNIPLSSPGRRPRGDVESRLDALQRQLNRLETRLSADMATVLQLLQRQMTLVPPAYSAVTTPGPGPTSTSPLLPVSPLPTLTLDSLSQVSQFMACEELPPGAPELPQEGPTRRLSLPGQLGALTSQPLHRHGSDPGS
Chain of CYP3A4 (P08684 whole entry): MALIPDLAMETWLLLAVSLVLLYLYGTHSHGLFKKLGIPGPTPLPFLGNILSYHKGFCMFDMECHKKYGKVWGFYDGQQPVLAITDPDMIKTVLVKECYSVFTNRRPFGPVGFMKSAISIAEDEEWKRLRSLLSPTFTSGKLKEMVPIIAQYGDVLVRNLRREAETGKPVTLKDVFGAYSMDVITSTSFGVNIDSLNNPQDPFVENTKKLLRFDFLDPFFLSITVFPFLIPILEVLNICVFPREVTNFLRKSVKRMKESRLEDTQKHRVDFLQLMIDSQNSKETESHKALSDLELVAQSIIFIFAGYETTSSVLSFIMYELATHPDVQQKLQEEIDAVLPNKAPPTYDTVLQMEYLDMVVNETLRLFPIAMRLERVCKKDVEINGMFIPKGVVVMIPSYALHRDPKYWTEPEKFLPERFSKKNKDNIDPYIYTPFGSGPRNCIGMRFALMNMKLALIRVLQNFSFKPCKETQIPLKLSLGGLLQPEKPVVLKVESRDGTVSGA
Chain of Human α7 NAChR (P36544 23-502 limits assumed): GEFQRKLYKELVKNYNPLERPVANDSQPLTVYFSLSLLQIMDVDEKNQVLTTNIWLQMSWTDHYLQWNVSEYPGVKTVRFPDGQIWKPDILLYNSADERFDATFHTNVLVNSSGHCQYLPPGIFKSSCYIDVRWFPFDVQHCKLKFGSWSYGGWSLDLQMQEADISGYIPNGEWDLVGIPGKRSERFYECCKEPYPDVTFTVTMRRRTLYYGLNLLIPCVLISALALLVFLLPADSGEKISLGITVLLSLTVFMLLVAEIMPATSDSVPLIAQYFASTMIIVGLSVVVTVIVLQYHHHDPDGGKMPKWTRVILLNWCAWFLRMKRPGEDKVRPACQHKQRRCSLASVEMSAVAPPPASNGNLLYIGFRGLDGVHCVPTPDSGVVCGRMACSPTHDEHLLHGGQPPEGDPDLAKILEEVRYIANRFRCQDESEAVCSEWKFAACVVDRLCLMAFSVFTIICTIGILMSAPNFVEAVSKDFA
Chain of CYP2C9 (P11712 whole entry): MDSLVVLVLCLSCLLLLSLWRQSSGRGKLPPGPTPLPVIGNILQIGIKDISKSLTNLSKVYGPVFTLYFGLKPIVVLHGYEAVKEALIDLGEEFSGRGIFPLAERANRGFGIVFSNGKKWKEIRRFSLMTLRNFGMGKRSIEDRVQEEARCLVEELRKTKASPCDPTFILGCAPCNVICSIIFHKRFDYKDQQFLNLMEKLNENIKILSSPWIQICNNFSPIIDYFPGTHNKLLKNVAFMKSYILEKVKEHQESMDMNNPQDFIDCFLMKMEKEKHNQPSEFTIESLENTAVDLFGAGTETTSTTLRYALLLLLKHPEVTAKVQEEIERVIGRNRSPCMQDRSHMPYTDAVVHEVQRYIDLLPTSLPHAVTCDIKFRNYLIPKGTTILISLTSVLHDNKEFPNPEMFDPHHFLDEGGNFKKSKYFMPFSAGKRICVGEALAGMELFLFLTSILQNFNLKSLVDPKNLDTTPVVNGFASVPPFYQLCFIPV
Chain of CYP2C19 (P33261 whole entry): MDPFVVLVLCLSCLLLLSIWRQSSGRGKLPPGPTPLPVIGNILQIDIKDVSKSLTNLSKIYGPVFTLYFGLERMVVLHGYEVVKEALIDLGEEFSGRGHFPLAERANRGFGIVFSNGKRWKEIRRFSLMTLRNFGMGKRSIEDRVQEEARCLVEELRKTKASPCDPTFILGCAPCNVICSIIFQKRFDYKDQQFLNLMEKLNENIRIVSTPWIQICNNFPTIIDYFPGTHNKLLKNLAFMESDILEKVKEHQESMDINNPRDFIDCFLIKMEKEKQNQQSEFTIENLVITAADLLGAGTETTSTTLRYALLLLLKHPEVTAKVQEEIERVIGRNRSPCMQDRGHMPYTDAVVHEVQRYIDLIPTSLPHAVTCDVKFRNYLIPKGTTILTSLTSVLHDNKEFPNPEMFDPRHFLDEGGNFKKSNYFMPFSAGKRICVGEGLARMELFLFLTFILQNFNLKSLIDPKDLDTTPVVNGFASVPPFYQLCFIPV
Chain of CYP1A2 (P05177 whole entry): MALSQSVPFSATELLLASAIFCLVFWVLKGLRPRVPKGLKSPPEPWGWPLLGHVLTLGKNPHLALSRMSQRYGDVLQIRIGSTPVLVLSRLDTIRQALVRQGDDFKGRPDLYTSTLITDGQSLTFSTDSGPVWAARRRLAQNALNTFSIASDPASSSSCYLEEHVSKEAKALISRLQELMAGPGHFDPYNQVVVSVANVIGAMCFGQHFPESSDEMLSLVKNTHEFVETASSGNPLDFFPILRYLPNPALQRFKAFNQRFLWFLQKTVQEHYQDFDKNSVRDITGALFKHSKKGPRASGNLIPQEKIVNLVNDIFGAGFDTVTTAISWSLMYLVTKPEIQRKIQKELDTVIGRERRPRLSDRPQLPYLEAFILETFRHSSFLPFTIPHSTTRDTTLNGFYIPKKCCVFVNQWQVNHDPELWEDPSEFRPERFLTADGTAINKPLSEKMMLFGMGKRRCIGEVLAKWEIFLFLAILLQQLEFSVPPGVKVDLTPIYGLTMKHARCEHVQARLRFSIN

Compound | IC50 [1] [nM] | I/Imax [2] | IC50 [3] [nM] | Ki [3] [nM] | IC50 [4] [nM] | IC50 [5] [nM] | IC50 [6] [nM] | IC50 [7] [nM] | efflux ratio at 90 min, 10 μM ([8]; pH 7.4, Caco-2, 10 μM) | Papp A→B at 90 min, 10 μM ([8]; pH 7.4, Caco-2, apical-to-basolateral, 10 μM) [×10⁻⁶ cm/s] | Papp B→A at 90 min, 10 μM ([8]; pH 7.4, Caco-2, basolateral-to-apical, 10 μM) [×10⁻⁶ cm/s] | IC50 [9] [nM] | Ki [9] [nM]
Cc1cc(Cl)c2c(C(=O)OCC34CCN(CC3)CC4)c[nH]c2c1.Cl [Compound 65, quinuclidin-4-ylmethyl 4-chloro-6-methyl-1H-indole-3-carboxylate hydrochloride] | 2430 | 0.212 | 63.6 | 54.6 | – | – | – | – | – | – | – | – | –
O=C(OCC12CCN(CC1)CC2)c1c[nH]c2cc(O)cc(Cl)c12 [Compound 46, quinuclidin-4-ylmethyl 4-chloro-6-hydroxy-1H-indole-3-carboxylate] | > 30000 | – | 33.4 | 28.6 | > 10000 | > 10000 | > 10000 | > 10000 | – | – | – | – | –
COc1c(OCC(F)(F)F)ccc2[nH]cc(C(=O)OCC34CCN(CC3)CC4)c12 [Compound 88, quinuclidin-4-ylmethyl 4-methoxy-5-(2,2,2-trifluoroethoxy)-1H-indole-3-carboxylate] | – | 0.185 | – | – | – | – | – | – | 7.86 | 3.25 | 25.5 | 211 | 356
